Measured values: patent US20090325959A1 (priority 2008, published 2009)
Where two headings read alike, the source gives them in different places.

Tests used:
[1] = system: NIH/3T3 cells; experiment: NIH/3T3 cell morphology assay (actin cytoskeleton disruption); assay type: cell-based; conditions: score 0 (no effect) to 4 (complete disruption) of the actin cytoskeleton; 60 minutes
Protocol: NIH/3T3 cells were grown in DMEM-H containing glutamine and 10% Colorado Calf Serum. Cells were passaged regularly prior to reaching confluence. Eighteen to 24 hours prior to experimentation, the cells were plated onto Poly-L-Lysine-coated glass bottom 24-well plates. On the day of experimentation, the cell culture medium was removed and was replaced with the same medium containing from 10 nM to 25 μM of the test compound, and the cells were incubated for 60 minutes at 37° C. The culture medium was then removed and the cells were washed with warmed PBS and fixed for 10 minutes with warmed 4% paraformaldehyde. The cells were permeabilized with 0.5% Triton-X, stained with TRITC-conjugated phalloidin and imaged using a Nikon Eclipse E600 epifluorescent microscope to determine the degree of actin disruption. Results were expressed as a numerical score indicating the observed degree of disruption of the actin cytoskeleton at the test concentration, ranging from 0 (no effect) to 4 (complete disruption), and were the average of at least 2 determinations.

[2] = target: T1, ROCK1 (Homo sapiens, UniProt Q13464); experiment: Rho kinase inhibition assay (IMAP fluorescence polarization), ROCK1; assay type: biochemical;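 also: kinase reaction run 60 min at room temperature, then phosphorylated substrate captured on IMAP beads for 30 min, with fluorescence polarization read in mP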
T1 construct: purchased Upstate/Chemicon 14-601
T1 sequence (Q13464 17-535 limits assumed): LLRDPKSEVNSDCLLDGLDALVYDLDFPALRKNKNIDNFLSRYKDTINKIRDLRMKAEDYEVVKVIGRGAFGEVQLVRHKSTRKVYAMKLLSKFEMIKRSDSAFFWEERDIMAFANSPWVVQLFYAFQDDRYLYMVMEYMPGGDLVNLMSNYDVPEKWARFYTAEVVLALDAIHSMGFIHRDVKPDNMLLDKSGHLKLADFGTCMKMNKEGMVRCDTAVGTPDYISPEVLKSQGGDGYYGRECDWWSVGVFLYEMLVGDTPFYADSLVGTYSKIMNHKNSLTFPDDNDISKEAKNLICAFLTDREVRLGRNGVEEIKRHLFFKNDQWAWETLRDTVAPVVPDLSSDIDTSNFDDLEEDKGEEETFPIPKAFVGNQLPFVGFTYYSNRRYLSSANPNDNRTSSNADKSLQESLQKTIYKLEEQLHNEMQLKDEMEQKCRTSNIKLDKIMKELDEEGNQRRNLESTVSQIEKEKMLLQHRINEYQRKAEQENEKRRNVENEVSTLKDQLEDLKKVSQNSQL
Protocol: (§1) Following the pre-incubation, 10 μM ATP was added to initiate the reaction. After 60 minutes at room temperature, Molecular Devices IMAP™ binding solution was added to bind phosphorylated substrate. After 30 minutes of incubation in the presence of the IMAP™ beads, the fluorescence polarization was read and the ratio was reported as mP. IC50 values for compounds and EC50 values for ATP were calculated using the Prism software from Graphpad.

[3] = target: T2, ROCK2 (Homo sapiens, UniProt O75116); experiment: Rho kinase inhibition assay (IMAP fluorescence polarization), ROCK2; assay type: biochemical;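 also: kinase reaction started with 10 µM ATP and run 60 min at room temperature, then phosphorylated substrate captured on IMAP beads for 30 min and fluorescence polarization read in mP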
T2 construct: purchased Upstate/Chemicon 14-451
T2 sequence (O75116 11-552 limits assumed): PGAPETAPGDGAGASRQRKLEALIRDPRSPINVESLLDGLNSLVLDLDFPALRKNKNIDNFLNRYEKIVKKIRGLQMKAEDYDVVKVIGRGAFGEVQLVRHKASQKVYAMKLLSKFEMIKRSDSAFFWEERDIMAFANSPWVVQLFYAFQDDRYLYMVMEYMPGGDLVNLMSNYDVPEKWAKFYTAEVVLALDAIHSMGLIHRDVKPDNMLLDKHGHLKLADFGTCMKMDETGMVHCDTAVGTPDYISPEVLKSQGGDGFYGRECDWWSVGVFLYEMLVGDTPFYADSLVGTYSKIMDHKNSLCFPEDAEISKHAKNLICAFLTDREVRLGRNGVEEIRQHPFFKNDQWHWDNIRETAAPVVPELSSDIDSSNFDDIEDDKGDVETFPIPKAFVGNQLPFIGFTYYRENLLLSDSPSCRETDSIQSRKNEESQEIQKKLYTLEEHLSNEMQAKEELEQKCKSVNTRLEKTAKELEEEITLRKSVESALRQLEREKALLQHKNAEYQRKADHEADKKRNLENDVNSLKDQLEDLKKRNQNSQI
Protocol: as §1

[4] = system: human neutrophils; experiment: Human neutrophil chemotaxis induced by fMLP (modified Boyden chamber); assay type: cell-based; conditions: Neutrophil
Text: This assay is an in vitro assay of neutrophil chemotaxis that can be used to evaluate the ability of Rho Kinase inhibitor compounds of Formula I or II to inhibit the migration of human neutrophils, an inflammatory cell that has been implicated in the pathophysiology of allergic conjunctivitis.
Peripheral blood from healthy human volunteers was collected and the neutrophils were isolated by Ficoll-paque density centrifugation followed by dextran sedimentation and hypotonic lysis of the red blood cells. Neutrophil chemotaxis was assessed using a modified Boyden Chamber (Neuroprobe, 96-well) with a 3 μm pore polycarbonate membrane. The ability of the tested compounds to block chemotaxis induced by a 1 μM fMLP challenge during a one hour incubation at 37° C. with 5% CO2 was assessed in a dose response manner.

[5] = system: ova-sensitized, ova-challenged mice; experiment: Prevention of airway hyperreactivity (Penh, methacholine) in mouse ovalbumin sensitization model; assay type: in vivo; conditions: days 27 to 31
Protocol: The anti-inflammatory dosing paradigm consists of dosing the animals once a day starting on day 27 and finishing on either day 30 or 31 (1 hr prior to the aerosolized ovalbumin challenges on days 28 to 30) but not on day 32 when hyperreactivity evaluation occurs. […] Exposure to the methacholine doses consisted of a 3 minute period during which a nebulizer was aerosolizing the methacholine and an additional 3 minute period following the cessation of nebulization. […] Enhanced pause (Penh), a unitless index of airway hyperreactivity, is derived from the expiratory side of the respiratory waveform measured via the plethysmograph and is used as an indirect measure of airway resistance and hyperreactivity. […] Following the methacholine dose response, BALF was collected and all animals were anesthetized, bled and euthanized. […] The Penh value at each of the dose levels of methacholine represents the 6-minute average response. Change from baseline (CFB) in Penh was calculated at each methacholine dose and the area under the curve (AUC) for these CFB values was calculated using the trapezoidal rule. This same approach was applied for each mouse across multiple experiments. […] Data from equal experimental conditions across experiments performed on different days were pooled for statistical analysis and data reporting. […] A random intercept for each experiment was assumed to account for possible similarities of the results obtained from a given experiment (i.e., as a “blocking effect”). […] For FIG. 9, linear AUC values from compound treated mice were reported as a percent of linear AUC values from vehicle-treated ovalbumin-sensitized/ovalbumin-challenged (asthmatic) mice.

[6] = system: A-10 rat thoracic aorta cells; experiment: PDGF-stimulated smooth muscle cell proliferation assay (BrdU incorporation); assay type: cell-based; conditions: A-10 cells, 10 ng/mL PDGF, BrdU incorporation, percent of total challenge-stimulated proliferation;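 also: cells kept in serum-free medium, BrdU allowed to incorporate for 24 h, then incorporated label detected fluorometrically with an anti-BrdU antibody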
[7] = target: T3, Akt3 human enzyme (Homo sapiens, UniProt Q9Y243); experiment: Akt3 inhibition assay (IMAP FP); assay type: biochemical;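 also: kinase reaction run 60 min at room temperature after 30 µM ATP start, phosphorylated substrate captured on IMAP beads and read as fluorescence polarization (mP)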
T3 construct: purchased Upstate Chemicon 14-502
T3 sequence (Q9Y243 whole entry): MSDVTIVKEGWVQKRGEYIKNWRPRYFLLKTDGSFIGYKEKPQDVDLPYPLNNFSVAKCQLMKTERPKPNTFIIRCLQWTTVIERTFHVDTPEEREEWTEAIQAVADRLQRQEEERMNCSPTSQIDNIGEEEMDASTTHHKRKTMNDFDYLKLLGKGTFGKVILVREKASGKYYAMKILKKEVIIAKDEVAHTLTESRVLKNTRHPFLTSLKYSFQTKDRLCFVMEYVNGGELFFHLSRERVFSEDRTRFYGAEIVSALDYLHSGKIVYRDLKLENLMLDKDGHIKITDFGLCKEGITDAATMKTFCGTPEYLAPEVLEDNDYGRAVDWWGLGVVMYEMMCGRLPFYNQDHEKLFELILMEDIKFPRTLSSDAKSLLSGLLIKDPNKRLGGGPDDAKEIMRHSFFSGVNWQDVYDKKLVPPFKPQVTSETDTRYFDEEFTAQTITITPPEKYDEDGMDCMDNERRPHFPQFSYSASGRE
Protocol: Inhibition of Akt3 and p70S6K activity was determined using the IMAP™ FP Progressive Binding Kit (Molecular Devices product number R8127). […] Following the pre-incubation, 30 μM ATP was added to initiate the reaction. After 60 minutes at RT, Molecular Devices IMAP™ binding solution was added to bind phosphorylated substrate. After 30 minutes of incubation in the presence of the IMAP™ beads the fluorescence polarization was read and the ratio was reported as mP. IC50 results were calculated using the Prism software from Graphpad. The Ki values were determined according to the following formula: Ki=IC50/(1+([ATP Challenge]/EC50 ATP)).

[8] = target: T4, p70S6K human enzyme (Homo sapiens, UniProt P23443, T412E); experiment: p70S6K inhibition assay (IMAP FP); assay type: biochemical;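 also: kinase reaction run at room temperature, phosphorylated substrate captured on IMAP beads and read as fluorescence polarization in mP, IC50 then converted to Ki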
T4 construct: purchased Upstate Chemicon 14-486
T4 sequence (P23443 1-421 T412E limits assumed): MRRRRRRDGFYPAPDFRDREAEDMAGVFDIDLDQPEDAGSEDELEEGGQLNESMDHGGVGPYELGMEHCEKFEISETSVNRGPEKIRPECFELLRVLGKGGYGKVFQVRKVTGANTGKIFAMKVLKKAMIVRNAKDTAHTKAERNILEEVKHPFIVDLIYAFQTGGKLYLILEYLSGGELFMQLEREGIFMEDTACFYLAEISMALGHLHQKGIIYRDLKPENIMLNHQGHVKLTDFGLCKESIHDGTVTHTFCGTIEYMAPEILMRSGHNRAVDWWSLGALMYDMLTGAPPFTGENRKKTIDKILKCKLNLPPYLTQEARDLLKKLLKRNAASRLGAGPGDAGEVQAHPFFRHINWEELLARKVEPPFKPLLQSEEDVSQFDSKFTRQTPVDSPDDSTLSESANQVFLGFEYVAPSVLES

[9] = Rat oral pharmacokinetics (plasma); assay type: in vivo; conditions: 20-30 μmol/kg, mean n = 3
[10] = Compound plasma concentrations in unsensitized mice at 15 min post administration; assay type: in vivo; conditions: mouse, 15 μmol/kg; mean compound plasma concentration in mice at 15 minutes post oral administration; read-out: Mouse Oral PK
[11] = 10 μM ATP, read-out: ROCK2 Ki, Avg
[12] = 1 h, 1 μM fMLP challenge, one hour, read-out: Chemotaxis Avg. IC50

SMILES | Cell score at 1 μM [1] | Ki ([2]; Avg, 10 μM ATP) | Ki [3, 11] | also measured
c1cc2cc(CN3CCCC(Nc4ccc5[nH]ncc5c4)C3)ccc2o1 (stereo not shown) [Compound 1.052, N-(1-(benzofuran-5-ylmethyl)piperidin-3-yl)-1H-indazol-5-amine] | 2.8 | – | – | –
Cc1cccc(CN2CCCC(Nc3ccc4[nH]ncc4c3)C2)c1 (stereo not shown) [Compound 1.066, N-(1-(3-methylbenzyl)piperidin-3-yl)-1H-indazol-5-amine] | 2 | – | – | –
CSc1ccc(CN2CCCC(Nc3ccc4[nH]ncc4c3)C2)cc1 (stereo not shown) [Compound 1.008, N-(1-(4-(methylthio)benzyl)piperidin-3-yl)-1H-indazol-5-amine] | 2 | 30.5 nM | 3.9 nM | –
c1ccc(CN2CCC(Nc3cccc4cnccc34)C2)cc1 (stereo not shown) [Compound 2.006, N-(1-benzylpyrrolidin-3-yl)isoguinolin-5-amine] | 2.8 | – | – | –
OCc1ccc(CN2CCCC(Nc3ccc4[nH]ncc4c3)C2)cc1 (stereo not shown) [Compound 1.025, (4-((3-(1H-indazol-5-ylamino)piperidin-1-yl)methyl)phenyl)methanol] | 2 | – | – | –
OCCOc1cccc(CN2CCCC(Nc3ccc4[nH]ncc4c3)C2)c1 (stereo not shown) [Compound 1.039, 2-(3-((3-(1H-indazol-5-ylamino)piperidin-1-yl)methyl)phenoxy)ethanol] | 2 | 209 nM | 24.7 nM | –
FC(F)(F)c1cccc(CN2CCC(Nc3cccc4cnccc34)C2)c1 (stereo not shown) [Compound 2.018, N-(1-(3-(trifluoromethyl)benzyl)pyrrolidin-3-yl)isoquinolin-5-amine] | 1.8 | – | – | –
C#Cc1ccc(CN2CCCC(Nc3ccc4[nH]ncc4c3)C2)cc1 (stereo not shown) [Compound 1.034, N-(1-(4-ethynylbenzyl)piperidin-3-yl)-1H-indazol-5-amine] | 2 | 36 nM | 5.3 nM | IC50 [4, 12]: 5600 nM
Clc1ccc(CN2CCC(Nc3ccc4[nH]ncc4c3)C2)cc1Cl (stereo not shown) [Compound 1.062, N-(1-(3,4-dichlorobenzyl)pyrrolidin-3-yl)-1H-indazol-5-amine] | 2.3 | – | – | –
Oc1cccc(CN2CCCC(Nc3ccc4[nH]ncc4c3)C2)c1 (stereo not shown) [Compound 1.046, 3-((3-(1H-indazol-5-ylamino)piperidin-1-yl)methyl)phenol] | 2.5 | – | – | –
CS(=O)(=O)c1cccc(CN2CCCC(Nc3ccc4[nH]ncc4c3)C2)c1 (stereo not shown) [Compound 1.048, N-(1-(3-(methylsulfonyl)benzyl)piperidin-3-yl)-1H-indazol-5-amine] | 1.5 | – | – | –
Cc1ccc(CN2CCCC(Nc3ccc4[nH]ncc4c3)C2)c(C)c1 (stereo not shown) [Compound 1.024, N-(1-(2,4-dimethylbenzyl)piperidin-3-yl)-1H-indazol-5-amine] | 2.4 | – | – | –
C[C@@H](N)[C@H]1CC[C@H](C(=O)Nc2ccncc2)CC1 [Compound Y-27632, reference compound] | – | – | – | IC50 [4, 12]: 6760 nM; log10AUC (Penh) ([5]; 30 μmol/kg/oral): 1.9942
C[C@@H]1C[C@H]2[C@@H]3CCC4=CC(=O)C=C[C@]4(C)[C@@]3(F)[C@@H](O)C[C@]2(C)[C@@]1(O)C(=O)CO [Dexamethasone, dexamethasone, reference compound] | – | – | – | log10AUC (Penh) ([5]; 1 mg/kg/oral): 2.0216
COc1ccc(CN2CCC(Nc3cccc4cnccc34)C2)cc1 (stereo not shown) [Compound 2.017, N-(1-(4-methoxybenzyl)pyrrolidin-3-yl)isoquinolin-5-amine] | 2 | – | – | –
Clc1ccc(CN2CCC(Nc3cccc4cnccc34)C2)cc1Cl (stereo not shown) [Compound 2.016, N-(1-(3,4-dichlorobenzyl)pyrrolidin-3-yl)isoquinolin-5-amine] | 1.8 | 101 nM | 42.4 nM | –
CS(=O)(=O)Nc1cccc(CN2CCCC(Nc3ccc4[nH]ncc4c3)C2)c1 (stereo not shown) [Compound 1.051, N-(3-((3-(1H-indazol-5-ylamino)piperidin-1-yl)methyl)phenyl)methanesulfonamide] | 2.5 | 37.2 nM | 3.8 nM | –
CS(=O)(=O)c1ccc(CN2CCC(Nc3ccc4[nH]ncc4c3)C2)cc1 (stereo not shown) [Compound 1.004, N-(1-(4-(methylsulfonyl)benzyl)pyrrolidin-3-yl)-1H-indazol-5-amine] | 1.8 | – | – | –
CS(=O)(=O)Cc1cccc(CN2CCCC(Nc3ccc4[nH]ncc4c3)C2)c1 (stereo not shown) [Compound 1.041, N-(1-(3-(methylsulfonylmethyl)benzyl)piperidin-3-yl)-1H-indazol-5-amine] | 2.5 | – | – | –
CSc1ccc(CN2CC[C@@H](Nc3cccc4cnccc34)C2)cc1 [Compound 2.026, (R)-N-(1-(4-(methylthio)benzyl)pyrrolidin-3-yl)isoquinolin-5-amine] | – | 38 nM | 13 nM | Ki ([2]; average Ki): 38 nM; Ki ([3]; average Ki, read-out: ROCK2 Ki): 13 nM; IC50 ([4]; 1 h, read-out: Chemotaxis Avg. IC50): 3800 nM; IC50 ([4]; read-out: Chemotaxis IC50): 3800 nM; Percent of PDGF Induced Proliferation at 1 μM Avg ([6]; 1 μM test compound): 74.5%; Percent of PDGF Induced Proliferation at 10 μM Avg ([6]; 10 μM test compound): 52.0%; Ki ([7]; 30 μM ATP, Ki=IC50/(1+([ATP Challenge]/EC50 ATP)), read-out: Akt3 Ki, Avg): 2080 nM; Ki ([7]; average Ki, read-out: Akt3 Ki): 2080 nM; Ki ([8]; 30 μM ATP, Ki=IC50/(1+([ATP Challenge]/EC50 ATP)), read-out: p70S6K Ki, Avg): 536 nM; Ki ([8]; average Ki, read-out: p70S6K Ki): 536 nM; AUC (0-last) [9]: BLQ; Cmax [9]: BLQ; Tmax [9]: BLQ; Vz_F [9]: BLQ; t½ [9]: BLQ; concentration at 15 min [10]: 629 nM
